Data set [1] concerns SV-40 transformed human corneal epithelial cells (HCEC). The format is cell-based. The following applies: SV-40 HCEC, 4 hours under liquid crystal.
The subject of data set [2] is SV-40 human corneal epithelial cells (HCEC). The data set is described as follows: TRANSWELL assay, prolonged (24 hour) exposure to liquid crystal, Calcein-AM readout. In kind it is cell-based. Particulars: 50 μL liquid crystal in upper chamber, confluent and sub-confluent SV-40 HCEC. The protocol: FIGS. 5A and 5B present the results of additional experiments to evaluate the toxicity of two different liquid crystals, 5CB and TL-205, following prolonged exposure to cells. For these experiments, TRANSWELL assays were carried out in which cell cultures were plated onto membranes in a TRANSWELL plate such that they were fed from below by liquid media while in continual contact with the liquid crystal, which was directly overlaid on the cells themselves. Briefly, SV-40 human corneal epithelial cells (HCEC) were grown in SHEM+10% fetal bovine serum. Cells were removed from T-75 tissue culture plates via trypsinization, and counted using a hemacytometer. Cells were plated onto TRANSWELL membranes (3 μm pore size, Corning, Inc., Corning, N.Y.) that allowed them to remain in contact with the liquid crystal as well as with the growth medium for 24 hours. Cells were plated at a concentration of 20,000 cells/well and allowed to grow. Some cells were tested at a density of confluence, approximately 45,000 cells (FIG. 5A), while another set was tested at a density of sub-confluence, approximately 30,000 cells/well (FIG. 5B). […] Calcein-AM was added to each well, and the cell fluorescence was measured to assess cell number. Fluorescence was read using a SYNERGY HT plate reader (Bio-Tek, Instruments, Inc., Winooksi, Vt.).

In data set [3] the test system is vesicular stomatitis virus (VSV). In kind it is cell-based. The following applies: 2×10^7 pfu VSV, room temperature, 30 minutes, 1 hour or 4 hours.
Data set [4] deals with HeLa cells. The data set is described as follows: Effects of liquid crystals on HeLa cells (morphology and viability). Particulars: DSCG in water; 30% (w/v) A3 in H2O; 21% (w/v) C14AO in H2O with 3% C10OH.
Procedure: (§1) HeLa mammalian cell line (from human cervical cancer cells) were grown in poly-L-lysine (MW 30,000 to 70,000)-treated coverslips in a 12-well plate in MEM medium supplemented with 10% fetal bovine serum. HeLa cells were grown in tissue culture plates until the cells reached a confluency of 90 to 95% within 24 hrs and were maintained at 37° C. with 5% CO2.
(§2) After incubation for less than one day, the DMEM was removed, the cells washed with PBS, 250 μl of the liquid crystal solution was overlaid.
(§3) The overlaid cultures were incubated at 37° C. for 4 hours, at which time the liquid crystals were removed, the cells were washed with PBS, and 1 mL of medium DMEM was added back to the cells. The cells were then incubated in the medium at 37° C. for an additional 4 days and then evaluated for morphology and viability.
Data set [5] concerns vesicular stomatitis virus (VSV). In kind it is cell-based. Particulars: 1.5×10^7 pfu VSV, 1 hour at 37° C., supernatant titrated after 2 days.
Data set [6] is described as follows: Viscosity of lyotropic liquid crystals. In kind it is physicochemical. Particulars: DSCG 9% wt, Triton 60% wt, Brij 50% wt, AMO 20% wt. The protocol:
Lyotropic liquid crystals were investigated for their biocompatibility and bio-inertness based on the following three criteria: (1) viscosity; (2) observed birefringence of the liquid crystal; and (3) protein binding activity when proteins are dissolved in the lyotropic liquid crystals. The stability of protein structure in the lyotropic liquid crystals is implicitly tested based on the evaluation of criterion (3). The binding activity of antibodies in the liquid crystal was tested by covalent attachment of an antibody to a solid surface and measurement of the binding of a fluorescently labeled antibody to the immobilized antibody.

A further data set deals with Human IgG. The data set is described as follows: Test of antibody binding in lyotropic liquid crystals (FITC anti-Human IgG to immobilized Human IgG). The following applies: 200 nM FITC anti-Human IgG in liquid crystal (10% DSCG), 4 hours, room temperature.
Another data set in a line: pH of DSCG in water. In kind it is physicochemical.
Data set [7] deals with HeLa cells.
Procedure: as §1, §2, §3

“Also recorded” adds a separate entry of the source. Where two headings read alike, the source gives them in different places.

`CCCCCc1ccc(-c2ccc(C#N)cc2)cc1` [5CB, 4-cyano-4′-pentylbiphenyl]: the “toxicity to cells (in words)” value in data set [1] is “toxic”. Further, the “cell viability after prolonged exposure” value in data set [2] is “appears to kill cells”.

In the case of `COCCOCCOCCOCc1c(C)c(COCCOCCOCCOC)c(C)c(COCCOCCOCCOC)c1C` [A3], the “VSV infectivity after incubation of virus with liquid crystal” value in data set [3] is on record as “no growth of VSV was observed”. Also, the “appearance of HeLa cells during contact with liquid crystal” value in the data set on HeLa cells [4] is “cell membranes started to show a rough appearance (blebbing) and the nuclei condensed”. In addition, the “VSV growth after inoculation of HeLa cells in the presence of liquid crystal” value in data set [5] is given as “no growth of VSV was observed”.

For `CCCCCCCCCCCCCC[N+](C)(C)[O-]` [AMO, tetradecyldimethylamineoxide], in data set [6], the Viscosity is recorded as 50-200 cp. Moreover, the “antibody binding activity in the lyotropic liquid crystal (in words)” value (“antibody binding activity” below) with Human IgG is recorded as “preserve specific antibody binding activity”.

In the case of `O=C(O)c1cc(=O)c2c(OCC(O)COc3cccc4oc(C(=O)O)cc(=O)c34)cccc2o1` [DSCG, disodium chromoglycate], the pH in “pH of DSCG in water” is on record as less than 6. Besides, the “VSV infectivity after incubation of virus with liquid crystal” value in data set [3] was “VSV is stable in the presence of DSCG; also recorded: the concentration of the virus had not changed significantly”. Also, the Viscosity in [6] is 0.5-30 cp. In addition, the “antibody binding activity” value with Human IgG is “FITC fluorescence was only found in the arrayed spots”. Also, in the data set on HeLa cells [7], the “HeLa cells after liquid crystal removed and medium added back” value was “proliferated well after the medium was added”; the “appearance of HeLa cells during contact with liquid crystal” value is “cells rounded up and detached from the surface”. Besides, the “VSV growth after inoculation of HeLa cells in the presence of liquid crystal” value in data set [5] is reported as “VSV can infect cells in the presence of DSCG”.

Laurate: the Viscosity in data set [6] is listed as 1-100 cp. For the same compound, the “antibody binding activity” value with Human IgG is reported as “interfered with antibody binding activities”.

Turning to Triton, in data set [6], the Viscosity is greater than 100 cp. The “antibody binding activity” value in the data set with Human IgG is “interfered with antibody binding activities”.
